Key:
[1] = Adsorption onto alum derived from DTaP vaccine (RP-HPLC); type: physicochemical; conditions: within 1-2 hr, all circumstances tested
human TLR7 = biological target: T1, human TLR7 (Homo sapiens, UniProt Q9NYK1); conditions: HEK293 cells stably expressing human TLR7 (ref. 24); cited from earlier work
T1 construct: host or cells: HEK293 with NF-kB-responsive SEAP reporter
T1 sequence (Q9NYK1 27-1049): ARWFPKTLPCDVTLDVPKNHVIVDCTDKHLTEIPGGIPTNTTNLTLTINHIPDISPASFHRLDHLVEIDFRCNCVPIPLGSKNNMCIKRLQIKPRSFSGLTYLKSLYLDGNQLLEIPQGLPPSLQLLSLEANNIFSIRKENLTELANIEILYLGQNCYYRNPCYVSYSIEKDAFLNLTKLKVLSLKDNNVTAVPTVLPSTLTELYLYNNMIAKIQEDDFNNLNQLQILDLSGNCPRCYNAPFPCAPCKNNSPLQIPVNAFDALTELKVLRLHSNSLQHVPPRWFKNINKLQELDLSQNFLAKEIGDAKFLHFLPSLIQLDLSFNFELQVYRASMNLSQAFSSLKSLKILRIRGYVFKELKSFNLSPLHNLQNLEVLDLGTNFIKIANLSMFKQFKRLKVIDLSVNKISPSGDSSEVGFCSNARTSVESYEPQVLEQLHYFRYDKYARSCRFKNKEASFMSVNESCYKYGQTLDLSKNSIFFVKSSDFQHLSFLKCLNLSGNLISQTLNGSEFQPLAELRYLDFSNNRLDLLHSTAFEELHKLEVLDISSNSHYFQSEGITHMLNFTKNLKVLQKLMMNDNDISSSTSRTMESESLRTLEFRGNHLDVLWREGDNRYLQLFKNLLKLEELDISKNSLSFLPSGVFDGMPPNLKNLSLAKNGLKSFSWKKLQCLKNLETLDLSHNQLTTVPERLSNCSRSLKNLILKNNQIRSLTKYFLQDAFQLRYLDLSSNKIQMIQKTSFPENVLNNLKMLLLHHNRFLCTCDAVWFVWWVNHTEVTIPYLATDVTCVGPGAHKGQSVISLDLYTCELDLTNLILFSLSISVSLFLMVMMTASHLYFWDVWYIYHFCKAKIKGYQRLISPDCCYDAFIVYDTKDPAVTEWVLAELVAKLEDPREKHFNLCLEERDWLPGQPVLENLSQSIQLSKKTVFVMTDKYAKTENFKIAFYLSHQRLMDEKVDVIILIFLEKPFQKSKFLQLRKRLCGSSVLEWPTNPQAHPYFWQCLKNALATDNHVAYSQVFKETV

[2] = Safety and reactogenicity monitoring in neonatal/infant rhesus macaques; type: in vivo, rhesus macaques (Macaca mulatta)
Procedure: In vivo neonatal and infant rhesus macaque vaccination studies. Rhesus macaques (Indian origin Macaca mulatta) were obtained from the TNPRC specific pathogen-free breeding colony. Upon identification, pregnant dams were transferred to an indoor social group to allow for monitoring and delivery of infants. At birth, neonatal rhesus macaques (<24 hours of age) were enrolled into the longitudinal immunization study. Exclusion criteria were, a) maternal fever (≥40° C.) during infant exam on DOL0, b) birth weight<400 g, c) clinical signs of neonatal infection (e.g. infant temperature […]; nasal, ocular discharge; respiratory distress, cardiovascular instability), d) congenital defects (e.g. abnormal digits, omphalocele) and/or e) abnormal cling. Animals were group-housed in dam/infant pairs with a maximum of 4 pairs (8 animals) together. […] Standard physiological safety parameters, extrapolated from human infant clinical trials of PCV (28), included temperature and weight (normalized to Tulane National Primate Research Center reference standard for rhesus macaques), which were recorded at multiple time-points at observation/sample-acquisition, as well as local signs of reactogenicity such as leg circumference pre/post-immunization and photographic documentation of erythema (Table 4). […]

| Compound | adsorption to the alum/antigen [1] | agonist activity, human TLR7 (human TLR7) | animals with transient and mild maculopapular rash ([2]; 3M-052- or (PCV13+3M-052)-treated infant animals, co-housed, second enrollment season) | systemic cytokine induction (plasma) ([2]; with or without PCV13, first 63 days of life or 48 hours post (DOL30) a single dose) |
| --- | --- | --- | --- | --- |
| CCCCc1nc2c(N)nc3ccccc3c2n1CCO [CRX-649] | 4-7% | – | – | – |
| CCCCCCCCCCCCCCCCCC(=O)NCCCCOn1c(CCCC)nc2c(N)nc3ccccc3c21 [3M-052, N-[4-[(4-amino-2-butyl-1H-imidazo[4,5-c]quinolin-1-yl)oxy]butyl]octadecanamide] | – | Dual agonist activity | 3 of the total of 16 | did not induce systemic cytokine induction |
